ChEMBL document CHEMBL5729160, “Lysophosphatidic acid receptor 1 (LPAR1) inhibitor compounds” (2022)

Legend:
[1] = molecular target: T1, Lysophosphatidic acid receptor 3 (Homo sapiens, UniProt Q9UBY5); assay: LPAR3 Calcium Flux Assays: A cDNA encoding the human LPAR3 receptor is synthesized and cloned into pDNA3 expression plasmid. The plasmid is transfected in U2OS cells using Lipofectamine 2000 (Invitrogen Corp., USA). Clones stably expressing human LPAR3 are selected using neomycin and identified as cells that show Ca-influx in response to LPA.U2OS cells overexpressing human LPAR3 are seeded at 20,000-40,000 cells per well in a 96-well poly-D-lysine coated plate one day before the assay. Prior to the assay, the cells are washed once with assay buffer (HBSS containing 20 mM HEPES and 0.2% BSA) and then incubated in 50 μl of assay buffer for 60 minutes. Then 50 μl of a calcium indicator dye (Fluo-4 NW, Molecular Probes) are added to each well and incubation is continued for 30 minutes at 37° C. and then 30 minutes at room temperature. 50 μl of test compounds in 4% DMSO are added to the cells and incubation continued at room temperature for 40 minutes. Cells are stimulated by the addition of 50 μl of 128 nM LPA and intracellular calcium is measured using the FLIPR TETRA (Molecular Devices). IC50 values are determined using “Genedata Screener” analysis tool.; assay type: cell-based
T1 sequence (Q9UBY5 whole entry): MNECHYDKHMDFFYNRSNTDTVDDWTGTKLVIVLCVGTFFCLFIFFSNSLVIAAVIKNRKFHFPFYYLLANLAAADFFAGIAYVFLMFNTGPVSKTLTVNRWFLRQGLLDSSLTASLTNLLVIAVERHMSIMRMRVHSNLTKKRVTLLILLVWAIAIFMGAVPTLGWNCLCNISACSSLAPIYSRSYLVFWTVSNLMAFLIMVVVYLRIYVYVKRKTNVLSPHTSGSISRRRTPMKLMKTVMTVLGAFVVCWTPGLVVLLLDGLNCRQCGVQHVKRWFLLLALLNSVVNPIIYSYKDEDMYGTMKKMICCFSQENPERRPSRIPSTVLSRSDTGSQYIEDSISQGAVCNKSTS

[2] = molecular target: Lysophosphatidic acid receptor 1 (Homo sapiens, UniProt Q92633); assay: LPAR1 Calcium Flux Assays: A cDNA encoding the human LPAR1 receptor is synthesized and cloned into pDNA3 expression plasmid. The plasmid is transfected in U937 cells using Lipofectamine 2000 (Invitrogen Corp., USA). Clones stably expressing human LPAR1 are selected using […] and identified as cells that show Ca-influx in response to LPA.U937 cells overexpressing human LPAR1 are seeded at 100,000 cells per well in a 96-well fibronectin (10 ug/ml) coated plate in 60 μl of assay buffer (HBSS containing 20 mM HEPES and 0.2% BSA) and then incubated for 60 minutes. Then 50 μl of a calcium indicator dye (Fluo-4 NW, Molecular Probes) are added to each well and incubation continued for 30 minutes at 37° C. and then 30 minutes at room temperature. 50 μl of test compounds in 4% DMSO are added to the cells and incubation continued at room temperature for 40 minutes. Cells are the stimulated by the addition of 50 μl of 128 nM LPA and intracellular calcium is measured using the FLIPR TETRA (Molecular Devices). IC50 values are determined using “Genedata Screener” analysis tool.; assay type: cell-based
Lysophosphatidic acid receptor 1, sequence (Q92633 whole entry): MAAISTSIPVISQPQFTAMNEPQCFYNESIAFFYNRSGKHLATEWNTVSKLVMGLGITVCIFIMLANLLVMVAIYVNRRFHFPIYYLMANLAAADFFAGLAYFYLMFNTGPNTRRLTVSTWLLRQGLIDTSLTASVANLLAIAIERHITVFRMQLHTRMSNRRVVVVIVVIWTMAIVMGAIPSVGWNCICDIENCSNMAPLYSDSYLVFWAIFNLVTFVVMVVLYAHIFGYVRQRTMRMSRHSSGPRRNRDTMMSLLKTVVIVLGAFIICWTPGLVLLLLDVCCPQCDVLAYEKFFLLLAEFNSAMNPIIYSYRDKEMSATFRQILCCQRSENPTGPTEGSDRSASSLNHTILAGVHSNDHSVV

IC50 [1]: > 10000 nM
IC50 [2]: 22 nM
Structure (SMILES): Cn1ncc(-c2ccc(-c3ccc(C4(C(=O)O)CC4)c(C(F)(F)F)c3)cn2)c1Nc1cncc(OC2CC2)n1
